# Source: the NIST ThermoML archive (doi:10.1016/j.jct.2005.11.005)
# ± gives the expanded uncertainty stated by the source.
# How the values were obtained:
# [1] = DTA; for Normal melting temperature: Crystal
# [2] = Molar enthalpy of transition or fusion; conditions: Crystal; DSC
SMILES,Normal melting temperature [1] [°C],Molar enthalpy of transition or fusion [2] [kcal/mol],Glass transition temperature ([1]; Glass) [°C]
O.O.OC[C@H]1O[C@H](O[C@H]2O[C@H](CO)[C@@H](O)[C@H](O)[C@H]2O)[C@H](O)[C@@H](O)[C@@H]1O [D-(+)-trehalose dihydrate],99.10 ± 0.5,26.2 ± 0.669,–
OC[C@H]1O[C@H](O[C@H]2O[C@H](CO)[C@@H](O)[C@H](O)[C@H]2O)[C@H](O)[C@@H](O)[C@@H]1O [α-trehalose],209.4 ± 0.5,12.8 ± 0.669,120.0 ± 2
